Drawing on PubChem BioAssay (NCI), this text covers TGI for seven compounds.

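48-hour exposure; five concentrations; linearly interpolated endpoints. TGI: concentration producing complete growth inhibition.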 A value given as a limit tells only on which side of the number the result lay.

Some test systems named below: HOP-18 NSCLC; SNB-78 CNS; P388 leukemia; P388/ADR leukemia; RXF-631 renal; SN12K1 renal; XF 498 CNS.
Assay in all cases: NCI tumour cell line growth inhibition, 48 h

Regarding `CCC1(N=[N+]=[N-])C(=O)c2ccccc2N(C)C1=O` (stereo not drawn), the TGI with HOP-18 NSCLC and in the test on SNB-78 CNS was more than 100 µM in each case.

On to `Clc1ccc(C(c2ccccc2Cl)C(Cl)Cl)cc1` (stereo not drawn), for which the TGI was determined as 21.6 µM in the test with HOP-18 NSCLC; 38.2 µM in the test with P388 leukemia; 44.2 µM with P388/ADR leukemia; 35.8 µM in the test on RXF-631 renal; 36.9 µM in the test with SN12K1 renal; 41.5 µM in the test on SNB-78 CNS. The compound further had a TGI with XF 498 CNS of 37.2 µM.

Take `O=C1CC2CC3OC3[C@H]3c4cc5c(cc4C(=O)N1C23)OCO5` (stereo partly drawn): in the test with XF 498 CNS, the TGI was more than 100 µM.

`O=c1cc(CO)oc2c3c(cc(O)c12)OCC(COC1OC(CO)C(O)C(O)C1O)=CC3` (stereo not drawn): the TGI with HOP-18 NSCLC and in the test with SNB-78 CNS was more than 100 µM each time.

Consider `CC(=O)OCC1OC(n2cc(F)c(=O)[nH]c2=O)C(NC(=O)OCc2ccccc2)C(OC(C)=O)C1OC(C)=O` (stereo not drawn), for which the TGI in the test on HOP-18 NSCLC, with P388 leukemia, in the test with P388/ADR leukemia, in the test with SN12K1 renal, with SNB-78 CNS and in the test on XF 498 CNS was more than 100 µM throughout.

Consider `CCOc1ccc2[nH]c3c(C)c4ccncc4c(C)c3c2c1`, for which the results for the TGI with RXF-631 renal, with SNB-78 CNS and with XF 498 CNS were 2.61 µM, 3.12 µM and 2.16 µM, respectively.

As to `Brc1ccc(C[P+]2(c3ccccc3)CCCCC2)cc1`, the TGI with HOP-18 NSCLC was more than 100 µM; with SNB-78 CNS, 84.2 µM.
